Data reported in patent US11917995B2, “Fungicidal compositions of mefentrifluconazole” (BASF AGRO B.V., priority 2018, dated 2024).

Key:
Assay type in all cases: cell-based
Septoria tritici = assay: Microtest: activity against leaf blotch on wheat caused by Septoria tritici (Septtr); conditions: single active compound, 0.001 ppm; 7 days after inoculation
Experimental: (§1) The visually determined percentages of infected leaf areas are converted into efficacies in % of the untreated control.
(§2) The efficacy (E) is calculated as follows using Abbot's formula: E=(1−α/β·100 • α corresponds to the fungicidal infection of the treated plants in % and • β corresponds to the fungicidal infection of the untreated (control) plants in %
(§3) An efficacy of 0 means that the infection level of the treated plants corresponds to that of the untreated control plants; an efficacy of 100 means that the treated plants were not infected. The expected efficacies of active compound combinations may be determined using Colby's formula (Colby, S. R. “Calculating synergistic and antagonistic responses of herbicide combinations”, Weeds, 15, pp. 20-22, 1967) and compared with the observed efficacies. […]
The stock solutions were mixed according to the ratio, pipetted onto a micro titer plate (MTP) and diluted with water to the stated concentrations. […] Using an absorption photometer, the MTPs were measured at 405 nm 7 days after the inoculation.
(§4) The measured parameters were compared to the growth of the active compound-free control variant (100%) and the fungus-free and active compound-free blank value to determine the relative growth in % of the pathogens in the respective active compounds.

Colletotrichum truncatum = assay: Microtiterplate test: activity against Colletotrichum truncatum (Colldu); conditions: single active compound, 7 days after inoculation
Experimental: as §1, §2
(§5) An efficacy of 0 means that the infection level of the treated plants corresponds to that of the untreated control plants; an efficacy of 100 means that the treated plants were not infected. The expected efficacies of active compound combinations may be determined using Colby's formula (Colby, S. R. “Calculating synergistic and antagonistic responses of herbicide combinations”, Weeds, 15, pp. 20-22, 1967) and compared with the observed efficacies.
(§6) Colby's formula: E=x+y−x·y/100 • E expected efficacy, expressed in % of the untreated control, when using the mixture of the active compounds A and B at the concentrations a and b • x efficacy, expressed in % of the untreated control, when using the active compound A at the concentration a • y efficacy, expressed in % of the untreated control, when using the active compound B at the concentration b.
(§7) The active compounds were formulated separately as a stock solution having a concentration of 10000 ppm in dimethyl sulfoxide.
(§8) The stock solutions were mixed according to the ratio, pipetted onto a micro titer plate(MTP) and diluted with water to the stated concentrations. Spores of the respective pathogen in an aqueous biomalt or yeast-bactopeptone-glycerine solution were then added. The plates were placed in a water vapor-saturated chamber at a temperature of 18° C. Using an absorption photometer, the MTPs were measured at 405 nm 7 days after the inoculation.
as §4

[1] = test system: Colletotrichum orbicularum; assay: Microtiterplate test: activity against Colletotrichum orbicularum (Collla); conditions: single active compound, 7 days after inoculation
Experimental: as §1, §2, §5, §6, §7, §8, §4

Sclerotinia sclerotiorum = assay: Microtiterplate test: activity against Sclerotinia sclerotiorum (Sclesc); conditions: single active compound, 0.25 ppm; 7 days after inoculation
Experimental: as §1, §2, §3
The stock solutions were mixed according to the ratio, pipetted onto a micro titer plate(MTP) and diluted with water to the stated concentrations. […] Using an absorption photometer, the MTPs were measured at 405 nm 7 days after the inoculation.
as §4

SMILES	Observed efficacy (Septoria tritici) [%]	Observed efficacy (Colletotrichum truncatum; 0.063 ppm) [%]	Observed efficacy (Colletotrichum truncatum; 0.25 ppm) [%]	Observed efficacy (Colletotrichum truncatum; 1 ppm) [%]	Observed efficacy (Colletotrichum truncatum; 4 ppm) [%]	Observed efficacy ([1]; 0.25 ppm) [%]	Observed efficacy ([1]; 1 ppm) [%]	Observed efficacy (Sclerotinia sclerotiorum) [%]
CC(O)(Cn1cncn1)c1ccc(Oc2ccc(Cl)cc2)cc1C(F)(F)F (stereo not drawn) [Mefentrifluconazole, mefentrifluconazole]	0	0	8	18	28	7	25	1
CCN(C)C=Nc1cc(C)c(Oc2ccccc2)cc1C [II-3, N′-(2,5-dimethyl-4-phenoxy-phenyl)-N-ethyl-N-methyl-formamidine]	5				16	19		11
